In patent publication US20130059879A1, “Small Molecule Inhibitors of PFKFB3 and Glycolytic Flux and Their Methods of Use as Anti-Cancer Therapeutics” (UNIVERSITY OF LOUISVILLE RESEARCH FOUNDATION, INC., priority 2010, published 2013):
Converted amounts (≈) assume the structure as drawn. Where two headings read alike, the source gives them in different places.

Key:
[1] = Solubility in solvents and excipients, 1 hour at room temperature, HPLC; assay type: physicochemical; details: thermodynamic from solid
Protocol: Chemical properties of the compounds of the invention were investigated, including the solubility in several solvents and pharmaceutically accepted excipients. […] Briefly, selected compounds of the invention are dissolved in a small volume of the solvents/excipients of interest at room temperature over 1 hour in typically 1 ml and the concentration is measured by HPLC after filtration.

[2] = Microsomal stability in human liver microsomes; assay type: in vitro ADME
[3] = tested on: HCT-116; assay: Cancer cell proliferation, Alamar Blue assay, 72 hours; assay type: cell-based; details: Homo sapiens, HCT-116
[4] = tested on: Jurkat; assay: as above; assay type: cell-based; details: Homo sapiens, Jurkat
Method in brief: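 This Alamar Blue assay measured the ability of compounds to kill or inhibit proliferation of Jurkat cancer cells. Cells seeded in 96 well plates at 2×10^5 cells/ml received compounds the following day, added at twice the indicated concentration in an equal volume of media. Exposure lasted 72 hours, and IC50 values were derived from triplicate experiments.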

[5] = tested on: U937; assay: as above; assay type: cell-based; details: Homo sapiens, U-937
[6] = tested on: NCI-H82; assay: as above; assay type: cell-based; details: Homo sapiens, NCI-H82, read-out: IC50 NCl-H82
Method in brief: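 This cell-based assay measured whether compounds kill or inhibit growth of NCI-H82 tumor cells, using Alamar Blue as the readout. Plating was at 2×10^5 cells/ml in 96 well plates. Compounds, prepared at double the final concentration, were added next day in the same volume of medium. Exposure lasted 72 hours, and each experiment was run in triplicate.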

[7] = tested on: MDA-MB-231; assay: as above; assay type: cell-based; details: Homo sapiens
[8] = tested on: Calu-6; assay: as above; assay type: cell-based; details: Homo sapiens, Calu-6
Method in brief: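 Calu-6 human cancer cells were seeded at 2×10^5 cells/ml in 96 well plates. The next day, an equal volume of media containing the compounds at twice the intended concentration was added. After 72 hours of exposure, inhibition of proliferation was measured with the Alamar Blue assay, run in triplicate, and IC50 values were determined.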

[9] = tested on: Jurkat cells; assay: Inhibition of 14C-2-deoxyglucose uptake; assay type: cell-based; details: Homo sapiens, 3 hours
Protocol: Inhibition of PFKFB3 results in inhibiting glycolysis. Several feedback or feedforward activation and inhibition mechanisms exist so that, by a feedback mechanism, inhibiting the activity of PFKFB3 may inhibit glucose uptake by cells. An assay was developed to determine if there was inhibition of glucose uptake following exposure to the compounds on the invention. Briefly, Jurkat cells were plated at 1×10^5/mL in RPM′ 1640 supplemented with 10% fetal bovine serum and 50 μg/mL gentamicin sulfate. Cells were immediately treated with vehicle or 5 μmol/L of the compound of the invention for 3 hours and subsequently placed in glucose-free RPMI 1640 for 30 min. ^14C-2-deoxyglucose (0.25 μCi/mL; Perkin Elmer) was added for an additional 60 min and cells were then washed three with ice-cold RPMI 1640 containing no glucose. Cell lysates were collected in 500 μL of 0.1% SDS, and scintillation counts (counts/min) were measured on 400 μL of lysate. Counts were normalized to protein concentration.

[10] = target: T1, PFKFB3 (Homo sapiens, UniProt Q16875); assay: Inhibition of recombinant PFKFB3 kinase activity (ADP Glow assay); assay type: biochemical; details: 250 nM analog concentration; read-out: % Inhibition of PFKFB3 Enzymatic Activity
T1 construct: GST
T1 sequence (Q16875 whole entry, species assumed): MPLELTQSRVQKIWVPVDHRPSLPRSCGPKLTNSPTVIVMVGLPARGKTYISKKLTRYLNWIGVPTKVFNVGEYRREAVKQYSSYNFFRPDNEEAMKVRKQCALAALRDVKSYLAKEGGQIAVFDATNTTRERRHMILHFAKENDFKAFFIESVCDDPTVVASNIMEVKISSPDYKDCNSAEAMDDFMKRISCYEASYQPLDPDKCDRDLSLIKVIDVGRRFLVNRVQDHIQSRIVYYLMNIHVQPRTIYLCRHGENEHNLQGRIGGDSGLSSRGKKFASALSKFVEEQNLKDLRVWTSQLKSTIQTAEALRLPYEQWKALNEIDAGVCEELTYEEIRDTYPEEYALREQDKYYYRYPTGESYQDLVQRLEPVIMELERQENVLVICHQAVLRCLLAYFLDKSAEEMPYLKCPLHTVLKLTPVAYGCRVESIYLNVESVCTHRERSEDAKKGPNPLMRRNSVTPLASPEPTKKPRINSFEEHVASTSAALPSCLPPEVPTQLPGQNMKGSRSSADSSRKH
Protocol: PFKFB3 was prepared by expression in E. coli and purified by GST column and column chromatography. […] The recombinant protein was pure and active as determined by the results of a kinase activity assay commercially available (such as ADP Glow® assay, […]). The same assay was used to determine the inhibition of the protein and the results are shown in Table 5 below (IC50 values or percent inhibition at a fixed concentration). Results confirmed that the compounds of the invention have low nanomolar IC50 values, interacting with PFKFB3 and inhibiting its enzymatic activity.

[11] = tested on: U87MG; assay: Cell proliferation, MTT assay, 48 hours; assay type: cell-based; details: Homo sapiens, U-87 MG
Protocol: (§1) The ability of the compounds described herein to kill or inhibit the proliferation of cancer cells was measured using either the MTT assay, or the Alamar Blue assay, or the Cell Titer Glow® assay using 48 or 72 hours exposure. […] The procedures are briefly described below. Cells of the desired tumor cell line were plated at 2×10^5 cells/ml in 96 well plates. Twice the indicated concentrations of the compounds of the invention were added to cells the following day in an equal volume of media. 72 hours later, cells were lysed and subjected to ATP determination using the CellTiter Glo-Luminescent Cell Viability Assay kit (Promega, Madison, Wis.). Experiments were done in triplicate. When using the MTT assay or the Alamar blue assay, the experimental conditions are essentially similar; at the end of the incubation period, 20 microliters of the MTT solution is added per well and the samples are incubated for an additional four hours, rinsed, and the absorbance at 570 nm measured. […] Table 2 lists the IC50 values for the compounds of the invention in several cell lines including Jurkat, Calu-6, NCI-H82, U937, HCT-116, and MDA-MB-231 cancer cell lines.

[12] = tested on: BT474; assay: Cell proliferation, MTT assay, 48 hours; assay type: cell-based; details: Homo sapiens, BT-474
Protocol: as §1

[13] = tested on: A549; assay: Cell proliferation, MTT assay, 48 hours; assay type: cell-based; details: Homo sapiens
Protocol: as §1

[14] = tested on: LnCap; assay: Cell proliferation, MTT assay, 48 hours; assay type: cell-based; details: Homo sapiens
Protocol: as §1

[15] = tested on: MiaPaca; assay: Cell proliferation, MTT assay, 48 hours; assay type: cell-based; details: Homo sapiens, MIA PaCa-2
Protocol: as §1

[16] = tested on: SK-BR-3; assay: Cell proliferation, MTT assay, 48 hours; assay type: cell-based; details: Homo sapiens, SK-BR-3, MTT assay
Protocol: as §1

[17] = tested on: CT26; assay: Cell proliferation, MTT assay, 48 hours; assay type: cell-based; details: Mus musculus
Protocol: as §1

[18] = tested on: SK-N-SH; assay: Cell proliferation, MTT assay, 48 hours; assay type: cell-based; details: Homo sapiens
Protocol: as §1

[19] = tested on: BX-PC-3; assay: Cell proliferation, MTT assay, 48 hours; assay type: cell-based; details: Homo sapiens, BXPC-3, BX-PC-3, MTT assay
Protocol: as §1

[20] = tested on: H22; assay: Cell proliferation, MTT assay, 48 hours; assay type: cell-based; details: Mus musculus
Protocol: as §1

[21] = aqueous with cosolvent or surfactant or cyclodextrin, Cre:EtOH:Saline 5:5:90 mixture, 1 hour at room temperature, read-out: Solubility Cre:EtOH:Saline
[22] = ethanol, organic solvent or mixture, EtOH, 1 hour at room temperature, read-out: Solubility EtOH
[23] = organic solvent or mixture, 1:1 cremophor EL-P:ethanol mixture, 1 hour at room temperature, read-out: Solubility Cre:EtOH
[24] = organic solvent or mixture, Acetone, 1 hour at room temperature, read-out: Solubility Acetone
[25] = organic solvent or mixture, Cremophor, 1 hour at room temperature, read-out: Solubility Cremophor
[26] = organic solvent or mixture, DCM, 1 hour at room temperature, read-out: Solubility DCM
[27] = organic solvent or mixture, Tween 80, 1 hour at room temperature, read-out: Solubility Tween 80
[28] = organic solvent or mixture, Tween80:EtOH 6:4 mixture, 1 hour at room temperature, read-out: Solubility Twee80:EtOH
[29] = 60 min incubation, 1.0 mg/ml microsomal protein, 1 mM NADPH, 37° C.

| SMILES | solubility at 1 h [1, 21] [µg/mL] | solubility at 1 h [1, 22] [µg/mL] | solubility at 1 h [1, 23] [µg/mL] | solubility at 1 h [1, 24] [µg/mL] | solubility at 1 h [1, 25] [µg/mL] | solubility at 1 h [1, 26] [µg/mL] | solubility at 1 h [1, 27] [µg/mL] | solubility at 1 h [1, 28] [µg/mL] | HLM, Mean metabolized (%) ([2]; 0 min) | HLM, Mean metabolized (%) [2, 29] [%] | IC50 [3] [nM] | IC50 [4] [nM] | IC50 [5] [nM] | IC50 [6] [nM] | IC50 [7] [nM] | IC50 [8] [nM] | inhibition at 5 µM [9] [%] | inhibition at 0.25 µM [10] [%] | further results |
| --- | --- | --- | --- | --- | --- | --- | --- | --- | --- | --- | --- | --- | --- | --- | --- | --- | --- | --- | --- |
| O=C(c1ccncc1)c1cc2c(ccc3ccccc32)[nH]1 [ACT-PFK-095, (3H-Benzo[e]indol-2-yl)-pyridin-4-yl-methanone] | 300 (≈ 1.1 mM) | 1600 (≈ 5.88 mM) | 10000 (≈ 36.7 mM) | 5000 (≈ 18.4 mM) | 6900 (≈ 25.3 mM) | 3400 (≈ 12.5 mM) | 7400 (≈ 27.2 mM) | 9700 (≈ 35.6 mM) | 0.0 | 26 | 2400 | 1500 | 50 | 498 | 395 | 208 | 48 | 26.2 | – |
| Nc1ccc(C(=O)c2cc3c(ccc4ccccc43)[nH]2)cc1 [ACT-PFK-112, (4-Amino-phenyl)-(3H-benzo[e]indol-2-yl)-methanone] | 3700 (≈ 12.9 mM) | 7400 (≈ 25.8 mM) | 37600 (≈ 131 mM) | 8200 (≈ 28.6 mM) | 18600 (≈ 65 mM) | 14000 (≈ 48.9 mM) | 18100 (≈ 63.2 mM) | 35600 (≈ 124 mM) | 0.0 | 82.7 | 1440 | 625 | 130 | 685 | 205 | 260 | 47 | 81.5 | IC50 [11]: 3.79 µM; IC50 [12]: 1370 nM; IC50 [13]: 822 nM; IC50 [14]: 1030 nM; IC50 [15]: 154 nM; IC50 [16]: 1110 nM; IC50 [17]: 1950 nM; IC50 [18]: 305 nM; IC50 [19]: 135 nM; IC50 [20]: 513 nM |
